The results in this text go back to US12240862B2, “Inhibitors of peptidylarginine deiminases” (Gilead Sciences, Inc., priority 2020, dated 2025).

The structures appear in SMILES notation.

Broadly, the IC50 is the concentration that inhibits the measured activity by half.

In this assay the target is T1, human PAD4 (Homo sapiens, UniProt Q9UM07).
T1 construct: human PAD4 (NM_012387), A2P663, was PCR amplified; His-SUMO (N, cleaved yes); made in house; host or cells: E. coli BL21(DE3)
T1 sequence (Q9UM07 2-663): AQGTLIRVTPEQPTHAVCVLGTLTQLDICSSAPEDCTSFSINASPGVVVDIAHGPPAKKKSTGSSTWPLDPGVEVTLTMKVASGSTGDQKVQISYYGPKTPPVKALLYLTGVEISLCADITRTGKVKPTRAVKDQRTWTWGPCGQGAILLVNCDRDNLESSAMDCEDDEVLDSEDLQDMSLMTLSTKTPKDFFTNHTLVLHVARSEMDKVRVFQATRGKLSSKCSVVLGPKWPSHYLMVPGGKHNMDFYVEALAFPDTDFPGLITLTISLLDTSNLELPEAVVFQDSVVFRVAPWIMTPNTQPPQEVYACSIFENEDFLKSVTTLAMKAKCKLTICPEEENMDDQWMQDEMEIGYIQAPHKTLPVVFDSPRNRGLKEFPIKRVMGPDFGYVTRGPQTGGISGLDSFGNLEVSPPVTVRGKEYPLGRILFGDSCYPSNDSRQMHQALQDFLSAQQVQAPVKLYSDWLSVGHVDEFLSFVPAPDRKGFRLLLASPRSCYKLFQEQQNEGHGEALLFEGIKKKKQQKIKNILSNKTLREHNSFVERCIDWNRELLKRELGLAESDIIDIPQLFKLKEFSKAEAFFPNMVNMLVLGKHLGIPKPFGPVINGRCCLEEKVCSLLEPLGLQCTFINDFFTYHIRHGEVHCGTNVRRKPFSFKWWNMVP
The assay can be described thus: In vitro PAD4 BAEE biochemical assay. The note with it: human PAD4, BAEE substrate; 5 nM PAD4, 2 mM calcium chloride, 3 mM BAEE; geometric mean of multiple experiments. A digest of the protocol: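 Tag-free recombinant hPAD4 (5 nM), 2 mM CaCl2, 3 mM BAEE, 50 mM MOPS pH 7.6, 2 mM DTT; 30 min compound preincubation, 2 h reaction, all 25 °C. EDTA quench; ammonia read via o-phthalaldehyde amine coupling, 1 h.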
For `COc1cc(C(=O)N2C[C@H](N)[C@@H]3CC[C@H]2C3)cc2nc(-c3cc4ccc([C@@H](C)NC(=O)C56CC(F)(C5)C6)nc4n3CC3CC3)c(C)n12` [Example 189, N—((R)-1-(2-(7-((1S,4R,5R)-4-amino-2-azabicyclo[3.2.1]octane-2-carbonyl)-5-methoxy-3-methylimidazo[1,2-a]pyridin-2-yl)-1-(cyclopropylmethyl)-1H-pyrrolo[2,3-b]pyridin-6-yl)ethyl)-3-fluorobicyclo[1.1.1]pentane-1-carboxamide], the 50% inhibitory concentration (IC50) was determined as 67.3 nM.

Turning to `COc1cc(C(=O)N2[C@H]3CC[C@@H]2[C@H](N)C3)cc2nc(-c3cc4ccc([C@@H](C)NC(=O)N(C(C)C)C(C)C)nc4n3CC3CC3)c(C)n12` [Example 236, 3-[(1~{R})-1-[2-[7-[(1~{R},2~{R},4~{S})-2-amino-7-azabicyclo[2.2.1]heptane-7-carbonyl]-5-methoxy-3-methylimidazo [1,2-a]pyridin-2-yl]-1-(cyclopropylmethyl)pyrrolo [2,3-b]pyridin-6-yl]ethyl]-1,1-di(propan-2-yl)urea], the IC50 was 55.6 nM.

As for `COc1cc(C(=O)N2[C@H]3CC[C@@H]2[C@H](N)C3)cc2nc(-c3cc4ccc([C@@H](C)NC(=O)[C@H](C)OC)nc4n3CC3CC3)c(C)n12` [Example 34, (2~{S})-~{N}-[(1~{R})-1-[2-[7-[(1~{R},2~{R}, 4~{S})-2-amino-7-azabicyclo[2.2.1]heptane-7-carbonyl]-5-methoxy-3-methylimidazo [1,2-a]pyridin-2-yl]-1-(cyclopropylmethyl)pyrrolo[2,3-b]pyridin-6-yl]ethyl]-2-methoxypropanamide], the IC50 stood at 57.9 nM.

With `COc1cc(C(=O)N2CCC[C@@H](N)C2)cc2nc(-c3cc4ccc(N(C)S(C)(=O)=O)nc4n3CC3CC3)c(C)n12` [Example 482, ~{N}-[2-[7-[(3~{R})-3-aminopiperidine-1-carbonyl]-5-methoxy-3-methylimidazo[1,2-a]pyridin-2-yl]-1-(cyclopropylmethyl)pyrrolo [2,3-b]pyridin-6-yl]-~{N}-methylmethanesulfonamide], the IC50 was 171 nM.

With `COc1cc(C(=O)N2CCC[C@@H](N)C2)cc2nc(-c3cc4ccc(C(C)n5cc(C#N)cn5)nc4n3CC3CC3)c(C)n12` (stereo partly shown) [Example 548, 1-[1-[2-[7-[(3~{R})-3-aminopiperidine-1-carbonyl]-5-methoxy-3-methylimidazo[1,2-a]pyridin-2-yl]-1-(cyclopropylmethyl)pyrrolo[2,3-b]pyridin-6-yl]ethyl] pyrazole-4-carbonitrile], the IC50 worked out at 532 nM.

Regarding `COc1cc(C(=O)N2CCC3CC3(N)C2)cc2nc(-c3cc4ccc(N(C(F)F)S(C)(=O)=O)nc4n3CC3CC3)c(C)n12` (stereo not shown) [Example 365, ~{N}-[2-[7-(1-amino-3-azabicyclo[4.1.0]heptane-3-carbonyl)-5-methoxy-3-methylimidazo [1,2-a]pyridin-2-yl]-1-(cyclopropylmethyl)pyrrolo [2,3-b]pyridin-6-yl]-~{N}-(difluoromethyl) methanesulfonamide], the IC50 is 403 nM.

Regarding `CS(=O)(=O)N(c1ccc2cc(-c3nc4cc(C(=O)N5[C@H]6CC[C@@H]5[C@H](N)C6)ccn4c3C3CC3)n(CC3CC3)c2n1)C(F)F` [Example 386, ~{N}-[2-[7-[(1~{R},2~{R}, 4~{S})-2-amino-7-azabicyclo[2.2.1]heptane-7-carbonyl]-3-cyclopropylimidazo [1,2-a]pyridin-2-yl]-1-(cyclopropylmethyl)pyrrolo [2,3-b]pyridin-6-yl]-~{N}-(difluoromethyl) methanesulfonamide], the IC50 came out at 126 nM.

In the case of `CCO[C@@H]1CCN(C(=O)c2cc(OC)n3c(C)c(-c4cc5ccc(N(C(F)F)S(C)(=O)=O)nc5n4CC4CC4)nc3c2)C[C@@H]1N` [Example 340, ~{N}-[2-[7-[(3~{S}, 4~{R})-3-amino-4-ethoxypiperidine-1-carbonyl]-5-methoxy-3-methylimidazo [1,2-a]pyridin-2-yl]-1-(cyclopropylmethyl)pyrrolo [2,3-b]pyridin-6-yl]-~{N}-(difluoromethyl) methanesulfonamide], the IC50 is 230 nM.

Take `COc1cc(C(=O)N2[C@H]3CC[C@@H]2[C@H](N)C3)cc2nc(-c3cc4ccc([C@@H](C)N5CCCC5)nc4n3CC3CC3)c(C)n12` [Example 272, [(1~{R},2~{R},4~{S})-2-amino-7-azabicyclo [2.2.1]heptan-7-yl]-[2-[1-(cyclopropylmethyl)-6-[(1~{R})-1-pyrrolidin-1-ylethyl]pyrrolo[2,3-b]pyridin-2-yl]-5-methoxy-3-methylimidazo[1,2-a]pyridin-7-yl]methanone]: the IC50 is 134 nM.

Take `COc1cc(C(=O)N2[C@H]3CC[C@@H]2[C@H](N)C3)cc2nc(-c3cc4ccc([C@@H](C)Nc5ccc(F)cn5)nc4n3CC3CC3)c(C)n12` [Example 259, ((1R,2R,4S)-2-amino-7-azabicyclo[2.2.1]heptan-7-yl)(2-(1-(cyclopropylmethyl)-6-((R)-1-((5-fluoropyridin-2-yl)amino)ethyl)-1H-pyrrolo[2,3-b]pyridin-2-yl)-5-methoxy-3-methylimidazo[1,2-a]pyridin-7-yl)methanone]: the concentration for half-maximal inhibition (IC50) was found to be 180 nM.

Turning to `COc1cc(C(=O)N2[C@H]3CC[C@@H]2[C@H](N)C3)cc2nc(-c3cc4ccc([C@@H](C)N5CCOCC5)nc4n3CC3CC3)c(C)n12` [Example 277, [(1~{R},2~{R},4~{S})-2-amino-7-azabicyclo [2.2.1]heptan-7-yl]-[2-[1-(cyclopropylmethyl)-6-[(1~{R})-1-morpholin-4-ylethyl]pyrrolo[2,3-b]pyridin-2-yl]-5-methoxy-3-methylimidazo[1,2-a]pyridin-7-yl]methanone], the IC50 is 191 nM.

Take `COc1cc(C(=O)N2[C@H]3CC[C@@H]2[C@H](N)C3)cc2nc(-c3cc4ccc([C@@H](C)NC(=O)C5C(F)(F)C56CC6)nc4n3CC3CC3)c(C)n12` (stereo partly shown) [Example 53, ~{N}-[(1~{R})-1-[2-[7-[(1~{R},2~{R}, 4~{S})-2-amino-7-azabicyclo[2.2.1]heptane-7-carbonyl]-5-methoxy-3-methylimidazo[1,2-a]pyridin-2-yl]-1-(cyclopropylmethyl)pyrrolo[2,3-b]pyridin-6-yl]ethyl]-2,2-difluorospiro[2.2] pentane-1-carboxamide]: the IC50 was found to be 37.2 nM.

Take `CS(=O)(=O)N(c1ccc2cc(-c3nc4cc(C(=O)N5CCC[C@@H](N)C5)c(F)cn4c3C3CC3)n(CC3CC3)c2n1)C(F)F` [Example 392, ~{N}-[2-[7-[(3~{R})-3-aminopiperidine-1-carbonyl]-3-cyclopropyl-6-fluoroimidazo [1,2-a]pyridin-2-yl]-1-(cyclopropylmethyl)pyrrolo [2,3-b]pyridin-6-yl]-~{N}-(difluoromethyl) methanesulfonamide]: the IC50 came out at 148 nM.

On to `[2H]C([2H])([2H])N(c1ccc2cc(-c3nc4cc(C(=O)N5C[C@H]6CC[C@@H]5[C@@H]6N)cc(OC)n4c3C)n(CC3CC3)c2n1)S(=O)(=O)Cc1ccccc1` [Example 471, N-[2-[7-[(1R,4R,7R)-7-amino-2-azabicyclo[2.2.1]heptane-2-carbonyl]-5-methoxy-3-methyl-imidazo [1,2-a]pyridin-2-yl]-1-(cyclopropylmethyl)pyrrolo[2,3-b]pyridin-6-yl]-1-phenyl-N-(trideuteriomethyl) methanesulfonamide], for which the half-maximal inhibitory concentration (IC50) came to 1360 nM.

As to `COc1cc(C(=O)N2CC[C@@H](O)[C@@H](N)C2)cc2nc(-c3cc4ccc([C@@H](C)NC(=O)c5ccccc5)nc4n3CC3CC3)c(C)n12` [Example 115], the IC50 stood at 177 nM.

With `CC(=O)NCc1c(-c2cc3ccc(N(C(F)F)S(C)(=O)=O)nc3n2CC2CC2)nc2cc(C(=O)N3CCC[C@@H](N)C3)ccn12` [Example 437, ~{N}-[[7-[(3~{R})-3-aminopiperidine-1-carbonyl]-2-[1-(cyclopropylmethyl)-6-[difluoromethyl (methylsulfonyl)amino]pyrrolo[2,3-b]pyridin-2-yl]imidazo[1,2-a]pyridin-3-yl]methyl]acetamide], the IC50 was found to be 550 nM.

Turning to `COc1cc(C(=O)N2[C@H]3CC[C@@H]2[C@H](N)C3)cc2nc(-c3cc4ccc([C@@H](C)NC(=O)c5ccccc5)nc4n3CC34CC(C3)C4)c(C)n12` [Example 489, ~{N}-[(1~{R})-1-[2-[7-[(1~{R},2~{R},4~{S})-2-amino-7-azabicyclo[2.2.1]heptane-7-carbonyl]-5-methoxy-3-methylimidazo[1,2-a]pyridin-2-yl]-1-(1-bicyclo [1.1.1]pentanylmethyl)pyrrolo[2,3-b]pyridin-6-yl]ethyl]benzamide], the IC50 stood at 177 nM.

With `COc1cc(C(=O)N2[C@H]3CC[C@@H]2[C@H](N)C3)cc2nc(-c3cc4ccc([C@@H](C)NC(=O)C(C)(C)CO)nc4n3CC3CC3)c(C3CC3)n12` [Example 86, ~{N}-[(1~{R})-1-[2-[7-[(1~{R},2~{R},4~{S})-2-amino-7-azabicyclo[2.2.1]heptane-7-carbonyl]-3-cyclopropyl-5-methoxyimidazo [1,2-a]pyridin-2-yl]-1-(cyclopropylmethyl)pyrrolo [2,3-b]pyridin-6-yl]ethyl]-3-hydroxy-2,2-dimethylpropanamide], the IC50 stood at 57.8 nM.

Consider `COc1cc(C(=O)N2[C@H]3CC[C@@H]2[C@H](N)C3)cc2nc(-c3cc4ccc([C@@H](C)NC(=O)[C@@H]5CC5(F)F)nc4n3CC3CC3)c(C)n12` [Example 130, (1~{S})-~{N}-[(1~{R})-1-[2-[7-[(1~{R},2~{R},4~{S})-2-amino-7-azabicyclo [2.2.1]heptane-7-carbonyl]-5-methoxy-3-methylimidazo [1,2-a]pyridin-2-yl]-1-(cyclopropylmethyl)pyrrolo [2,3-b]pyridin-6-yl]ethyl]-2,2-difluorocyclopropane-1-carboxamide], for which the IC50 turned out to be 47.2 nM.
